Assay results published in US4877893A, “Process for the preparation of 2-(O-alkyl)-2-thio-1,3,2-oxathiophospholanes” (priority 1987, dated 1989).

Tests used:
Assay in all cases: Fungicidal effect on infected agar nutrient media, colony diameter
Type in all cases: cell-based
Sclerotinia sclerotinia = conditions: 3rd day after treatment, untreated control 41.7
Description: (§1) Agar nutrient media (Diameter 70 MM, thickness 10 mm) infected by Sclerotonia sclerotinia suspension are treated with 20 EC formulations prepared according to Example 27 and comprising 1, 10, 100 and 1000 ppm, respectively of the active ingredient of the Formula I. The fungicidal effect of the compositions is evaluated on the 3rd day after treatment by measuring the diameter of the Fungi colonies.

Penicillium cyclopium = conditions: 7th day after treatment, untreated 26.5
Description: as §1
The series of measureents described in Example 35 is carried out except that the agar nutrient media are infected by a Penicillium cyclopium Fungi strain and the test is evaluated on the 7th day after treatment.

Alternaria tenuis = conditions: 5th day after treatment, untreated control 36.8
Description: as §1
The series of measurements according to Example 35 is carried out except that the agar nutrient media are infected by Alternaria Tenius and evaluation is accomplished on the 5th day after treatment.

Row | SMILES | Diameter of colony (mm) (Sclerotinia sclerotinia; 1 ppm) | Diameter of colony (mm) (Sclerotinia sclerotinia; 10 ppm) | Diameter of colony (mm) (Sclerotinia sclerotinia; 100 ppm) | Diameter of colony (mm) (Sclerotinia sclerotinia; 1000 ppm) | Diameter of colony (mm) (Penicillium cyclopium; 1 ppm) | Diameter of colony (mm) (Penicillium cyclopium; 10 ppm) | Diameter of colony (mm) (Penicillium cyclopium; 100 ppm) | Diameter of colony (mm) (Penicillium cyclopium; 1000 ppm) | Diameter of colony (mm) (Alternaria tenuis; 1 ppm) | Diameter of colony (mm) (Alternaria tenuis; 10 ppm) | Diameter of colony (mm) (Alternaria tenuis; 100 ppm) | Diameter of colony (mm) (Alternaria tenuis; 1000 ppm)
1 | S=P1(OCCBr)OCCS1 (stereo not drawn) [Compound 2, 2-(O-2'-bromoethyl)-2-thio-1,3,2-oxathiophospholane] | 32.9 mm | 29.3 mm | 3.1 mm | 0 mm | 24.6 mm | 19.0 mm | 8.4 mm | 0 mm | 30.9 mm | 26.1 mm | 5.3 mm | 0 mm
2 | S=P1(OCCI)OCCS1 (stereo not drawn) [Compound 3, 2-(O-2'-iodoethyl)-2-thio1,3,2-oxathiophospholane] | 37.4 mm | 30.0 mm | 2.1 mm | 0 mm | 25.0 mm | 18.6 mm | 7.1 mm | 0 mm | 34.6 mm | 22.4 mm | 6.8 mm | 0 mm
3 | CC1CSP(=S)(OCCCl)O1 (stereo not drawn) [Compound 4, 2-(0-2'-chloroethyl)-2-thio-5-methyl-1,3,2-oxathiophospholane] | 34.6 mm | 27.6 mm | 0 mm | 0 mm | 24.1 mm | 19.4 mm | 9.0 mm | 0 mm | 32.6 mm | 23.7 mm | 6.5 mm | 0 mm
4 | CC1CSP(=S)(OCCBr)O1 (stereo not drawn) [Compound 5] | 35.4 mm | 29.2 mm | 1.7 mm | 0 mm | 20.1 mm | 19.5 mm | 7.8 mm | 0 mm | 34.9 mm | 22.3 mm | 7.9 mm | 0 mm
5 | CC1CSP(=S)(OCCI)O1 (stereo not drawn) [Compound 6] | 39.3 mm | 30.0 mm | 1.0 mm | 0 mm | 21.3 mm | 17.3 mm | 9.0 mm | 0 mm | 35.5 mm | 21.0 mm | 6.0 mm | 0 mm
6 | CC1COP(=S)(OCCCl)S1 (stereo not drawn) [Compound 7] | 38.1 mm | 31.2 mm | 0 mm | 0 mm | 25.4 mm | 16.7 mm | 8.8 mm | 0 mm | 34.7 mm | 25.5 mm | 5.9 mm | 0 mm
7 | CC1COP(=S)(OCCBr)S1 (stereo not drawn) [Compound 8] | 37.6 mm | 29.9 mm | 1.0 mm | 0 mm | 20.0 mm | 18.3 mm | 7.9 mm | 0 mm | 30.1 mm | 26.1 mm | 6.4 mm | 0 mm
8 | CC1COP(=S)(OCCI)S1 (stereo not drawn) [Compound 9, 2-(0-2'-iodoethyl)-2-thio-4-methyl-1,3,2-oxathiophospholane] | 39.2 mm | 27.6 mm | 3.9 mm | 0 mm | 23.2 mm | 15.8 mm | 5.7 mm | 0 mm | 30.6 mm | 24.6 mm | 8.9 mm | 0 mm
